The results in this text go back to patent publication US8278075B2, “L-cysteine-producing bacterium and a method for producing L-cysteine” (Ajinomoto Co., Inc., priority 2008, dated 2012).

The structures appear in SMILES notation.

The subject of experiment [1] is tolC-deficient JW5503 strain (BW25113ΔtolC). Nature of the experiment: Cross streak method, growth inhibition (antibacterial) width. Type of experiment: cell-based, Escherichia coli. The following applies: L agar, overnight at 30° C. As for the experimental part: (§1) Influence of a tolC gene deficiency on N-acetylserine (NAS) and O-acetylserine (OAS) sensitivity was investigated in a strain which is deficient in a part of or the entire tolC gene by the cross streak method. In order to compare growth inhibition by NAS (2 M), OAS (2 M), L-cysteine (2 M) and L-serine (1 M), the tolC-deficient JW5503 strain, and the wild-type BW25113 strain used as a control, were cultured overnight in the L liquid medium, and each culture medium was streaked on the L agar medium with a platinum loop. A strip-shaped filter paper onto which each of the aforementioned reagents was dropped, was placed on each of the strains in a direction perpendicular to the streaking direction, and the strains were cultured overnight at 30° C. After the culture, lengths of the filter paper on which growth of the bacteria was inhibited (antibacterial widths) were measured, and the antibacterial activities of the regents on both the strains were compared.

For another experiment, the system named is wild-type BW25113 strain. The experiment is described as above. Type of experiment: cell-based, Escherichia coli. The settings on record: L agar, overnight at 30° C. The procedure: as §1
The next experiment deals with wild-type strains. Nature of the experiment: Growth on LB agar media containing cysteine (Keio collection screening). Type of experiment: cell-based, E. coli BW25113. The settings on record: overnight at 37° C. The procedure: The 3,985 clones of the Keio collection were cultured at 37° C. for 15 hours in 0.5 ml of LB liquid medium. This culture medium was stamped on LB agar media containing cysteine at different concentrations (0, 15, 20, 25 mM), and culture was performed overnight at 37° C. Clones that were sensitive to cysteine at a concentration not higher than the growth inhibition concentration of cysteine for wild-type strains (20 mM) were visually selected. […] A strain which is deficient in a part of or the entire tolC gene was obtained as a clone showing particularly strong and distinctive cysteine sensitivity among the above candidates. TolC is an example of a protein called a porin, which localizes in the outer membrane and forms a channel for substance transportation via the outer membrane. Although the presence of many other porins was known for E. coli, TolC was the only porin selected by this screening, among the several candidates considered showing strong cysteine sensitivity.

Experiment [2] relates to tolC gene-deficient strain JW5503/pCA24. As to the kind of experiment: Growth test of serially diluted cell suspensions spotted on L agar medium containing cysteine. Type of experiment: cell-based, Escherichia coli. The settings on record: L agar with 10, 15, 20 mM cysteine, 37° C. overnight; FIG. 1. An excerpt:
Since a strain which is deficient in a part of or the entire tolC gene was obtained by the screening of the Keio Collection, growth of the gene-deficient strain was observed on the agar medium containing cysteine of different concentrations in order to analyze the sensitivity of that strain to cysteine in more detail. The strain which is deficient in a part of or the entire tolC gene used here was the JW5503 strain (Keio collection), and the parent strain thereof was the BW25113 strain (Andreas Haldimann, A. and Wanner, B. L., J. Bacteriol., 2001 November; 183 (21):6384-6393). The plasmid carrying the tolC gene for a complementation experiment was pTolC (ASKA clone, Kitagawa, M, et al., 2005; DNA Res., 12:291-299), and the vector used as the base thereof was pCA24 (vector for ASKA clone, Kitagawa, M, et al., 2005, DNA Res., 12:291-299).
The bacteria containing each of the plasmids were each inoculated into 5 ml of L medium (10 g/L of Bacto trypton, 5 g/L of Bacto yeast extract, 5 g/L of NaCl), and cultured overnight at 37° C. […]

Setting [3] is: reagent 1 M on filter paper strip.
Where [4] appears, read: reagent 2 M on filter paper strip.

With `N[C@@H](CO)C(=O)O` [L-Serine], the Growth inhibition width (in experiment [1] (setting [3]); in the experiment with wild-type BW25113 strain (setting [3])) was 0 mm throughout.
As for `CC(=O)N[C@@H](CO)C(=O)O` [N-Acetylserine], the Growth inhibition width in experiment [1] (setting [4]) is reported as 10 mm; in the experiment with wild-type BW25113 strain (setting [4]), <2 mm.
With `N[C@@H](CS)C(=O)O` [L-Cysteine], the results for the Growth inhibition width (in experiment [1] (setting [4]); in the experiment on wild-type BW25113 strain (setting [4])) were 5 mm and <1 mm, respectively. Also, the “growth inhibition concentration of cysteine for wild-type strains” value in the experiment with wild-type strains was determined as 20 mM. Besides, the “cysteine sensitivity of growth compared with the control strain BW25113/pCA24” value in experiment [2] is reported as “marked cysteine sensitivity”.
On to `CC(=O)OC[C@H](N)C(=O)O` [O-Acetylserine], for which the Growth inhibition width is 4 mm in experiment [1] (setting [4]) and <1 mm with wild-type BW25113 strain (setting [4]).
